Source: publication PMC5581522 (Cancer Science, 2017)
“Also recorded” adds a separate entry of the source. Where two headings read alike, the source gives them in different places. Marks after values point to notes of the source that are not given here.

Tests used:
[1] = tested on: cancer antigen 125 (CA‐125); experiment: CA-125 tumor marker response (GCIG definition); format: in vivo, Japanese patients
Method: All enrolled patients with ovarian cancer or peritoneal cancer had measurements of cancer antigen 125 (CA‐125) on day 1 of cycle 1, every cycle (28 days) thereafter, and at the final visit. CA‐125 response was measured according to the Gynecologic Cancer InterGroup (GCIG) CA‐125 response definition.31

[2] = Phase 1 tolerability and safety (DLT, TEAEs, NCI CTCAE v4.0); format: in vivo, Japanese patients
Method: Eligible patients were assigned to one of two treatment groups (dose levels). […] Three to six patients were enrolled in each treatment group. Dose escalation was carried out according to a 3 + 3 design to define dose‐limiting toxicities (DLTs), and the maximum administered dose/recommended phase 2 dose (RP2D). […] Patients received treatment for a maximum of 30 cycles or until treatment discontinuation. […] Treatment could be postponed for up to 28 days due to toxicity; longer toxicity‐related delays would lead to study discontinuation.
The maximum tolerated dose (MTD) was defined as the highest dose level at which fewer than two of total six patients or <33% of patients (if the cohort was expanded beyond six patients) experienced a DLT. The RP2D was determined based on the observed DLTs and identified MTD; RP2D would not be dosed higher than the MTD. If the MTD was not reached, the RP2D was defined based on the safety and PK data. Prophylactic use of antiemetics and colony‐stimulating factors was not permitted during the DLT‐evaluation period, in order to clearly define the safety profile in Japanese patients.
The safety of each treatment group was assessed by evaluating study drug exposure, AEs, serious AEs (SAEs), all deaths, changes in laboratory determinations, and vital signs parameters. […] AEs were assessed according to the NCI CTCAE version 4.0.29 An independent data monitoring committee reviewed safety data for DLT evaluation.

advanced solid tumors = experiment: Preliminary antitumor efficacy (RECIST version 1.1, TTP); format: in vivo, Japanese patients; details: for ORR: measurable disease
Method: To determine preliminary antitumor efficacy, baseline radiographic tumor assessments were conducted within 3 weeks prior to registration and thereafter every 8 weeks from cycle 1 day 1 and at the final visit, using the Response Evaluation Criteria In Solid Tumors (RECIST) version 1.1.30 In addition, the investigator evaluated the patient for evidence of clinical disease progression at each visit. Changes in measurable tumor lesions were assessed to determine the response rate, defined as proportion of patients with complete response (CR) or partial response (PR), and time to progression (TTP), defined as the number of days from the date the patient was dosed to the date the patient experienced an event of progressive disease (PD). […] Changes from baseline in performance status were analyzed.
Unless otherwise noted, for all statistical analyses, statistical significance was determined by a two‐sided P‐value ≤0.05. Descriptive statistics were used to describe baseline demographic variables, and summary statistics were computed for PK variables at each sampling time. PK variables were determined per patient and dose level. The safety of veliparib was assessed by evaluating veliparib exposure, AEs, SAEs, all deaths, and changes in laboratory determinations and vital sign parameters. The proportion of patients with CR or PR was estimated with a 95% confidence interval (CI) constructed for the estimated proportion. The distribution of TTP was estimated using Kaplan‐Meier methodology.

[3] = Plasma pharmacokinetics, cycle 1 day 1, noncompartmental; format: in vivo, Japanese patients; details: for half-life / AUC(0-inf) / Cmax / AUC(0-t): human, plasma; for half-life: harmonic mean ± pseudo SD; for AUC(0-inf) / Cmax / AUC(0-t): mean ± SD; for AUC(0-t): read-out: AUC0–8
Excerpt: Noncompartmental methods were used to determine the maximum observed plasma concentration (C max), the time to C max (T max), the area under the plasma concentration‐time curve (AUC), and terminal elimination half‐life (t 1/2).

BRCA‐mutated tumors = details: phase 1, single agent; cited from earlier work
[4] = tested on: recurrent ovarian cancer and germline BRCA1 and BRCA2 mutations; details: cited from earlier work
[5] = 14 patients with measurable disease
[6] = 200 mg oral, cycle 1 day 1, n = 4
[7] = 400 mg oral, cycle 1 day 1, n = 9
[8] = 400 mg oral, cycle 1 day 1, n = 12

C[C@]1(c2nc3c(C(N)=O)cccc3[nH]2)CCCN1 [veliparib]
median change in CA‐125 level from baseline ([1]; all patients, range: −97.8% to +155.2%): −18.8%
patients achieving CA‐125 response ([1]; ovarian (n = 14) or primary peritoneal cancer (n = 1)): 20%
AEs / toxicities leading to death ([2]; all patients): No toxicities leading to death; also recorded: no AEs or SAEs leading to death
patients who discontinued treatment due to AEs/toxicity ([2]; human, in vivo): 6%
patients with a grade ≥3 AE / toxicity ([2]; human, in vivo): 50%
patients with abdominal pain ([2]; human, in vivo): 31.3%
patients with at least one grade ≥1 TEAE ([2]; human, in vivo): 100%
patients with decreased appetite ([2]; human, in vivo): 62.5%
patients with diarrhea ([2]; human, in vivo): 31.3%
patients with dysgeusia ([2]; human, in vivo): 31.3%
patients with fatigue ([2]; human, in vivo): 25%
patients with insomnia ([2]; human, in vivo): 25%
patients with malaise ([2]; human, in vivo): 31.3%
patients with nausea ([2]; human, in vivo): 93.8%
patients with neutropenia ([2]; human, in vivo): 25%
patients with thrombocytopenia ([2]; human, in vivo): 25%
patients with vomiting ([2]; human, in vivo): 93.8%
recommended phase 2 dose (RP2D) ([2]; human, in vivo, po, 28 days): 400 mg BID
anemia leading to dose interruption, reduction, or delay ([2]; in vivo): one patient
decreased appetite leading to dose interruption, reduction, or delay ([2]; in vivo): one patient
essential tremor leading to dose interruption, reduction, or delay ([2]; in vivo): one patient
fatigue leading to dose interruption, reduction, or delay ([2]; in vivo): three patients
nausea leading to dose interruption, reduction, or delay ([2]; in vivo): three patients
neutropenia leading to dose interruption, reduction, or delay ([2]; in vivo): three patients
patients experiencing a SAE ([2]; in vivo): two patients
patients with a dose‐limiting toxicity (DLT) ([2]; in vivo): one patient
thrombocytopenia leading to dose interruption, reduction, or delay ([2]; in vivo): three patients
vomiting leading to dose interruption, reduction, or delay ([2]; in vivo): two patients
Best response: CR (advanced solid tumors; 200 mg BID (n = 4)): 0 n (%)
Best response: Not evaluable (advanced solid tumors; 200 mg BID (n = 4)): 1 (25.0) n (%)
Best response: PD (advanced solid tumors; 200 mg BID (n = 4)): 1 (25.0) n (%)
Best response: PR (advanced solid tumors; 200 mg BID (n = 4)): 1 (25.0) n (%)
Best response: Stable disease (advanced solid tumors; 200 mg BID (n = 4)): 1 (25.0) n (%)
DCR (CR + PR + stable disease) (advanced solid tumors; 200 mg BID (n = 4)): 2 (50.0) n (%)
ORR (advanced solid tumors; 200 mg BID (n = 4), 95% CI 0.6–80.6): 1 ^§ (25.0) [0.6–80.6] %
Median TTP (advanced solid tumors; 200 mg dose cohort): 106 (range, 17–226) days
Best response: CR (advanced solid tumors; 400 mg BID (n = 10)): 0 n (%)
Best response: Not evaluable (advanced solid tumors; 400 mg BID (n = 10)): 0 n (%)
Best response: PD (advanced solid tumors; 400 mg BID (n = 10)): 2 (20.0) n (%)
Best response: PR (advanced solid tumors; 400 mg BID (n = 10)): 1 (10.0) n (%)
Best response: Stable disease (advanced solid tumors; 400 mg BID (n = 10)): 7 (70.0) n (%)
DCR (CR + PR + stable disease) (advanced solid tumors; 400 mg BID (n = 10)): 8 (80.0) n (%)
ORR (advanced solid tumors; 400 mg BID (n = 10), 95% CI 0.3–44.5): 1 ^¶ (10.0) [0.3–44.5] %
Median TTP (advanced solid tumors; 400 mg dose cohort): 170 (range, 48–340) days
disease control overall (advanced solid tumors; 12 of 16 patients): 75%
patients progressed at first tumor assessment (advanced solid tumors; [5]): 21.4%
patients with best objective response stable disease (advanced solid tumors; [5]): eight patients
patients with best objective response PR (advanced solid tumors; 14 patients with measurable disease, both with platinum sensitive ovarian cancer): Two patients
patients who discontinued treatment due to disease progression (advanced solid tumors; all 16 patients): 75%
median percentage change from baseline in the sum of the tumor sizes of target lesions (advanced solid tumors; all patients, range, −46.8% to +50.0%): −10.3%
disease control rate (DCR, CR + PR + stable disease) (advanced solid tumors; patients with measurable disease (10/14)): 71.4%
Median TTP (advanced solid tumors; platinum sensitive ovarian or peritoneal cancer, 400 mg BID, range, 48–340): 218 days
Best response: CR (advanced solid tumors; total (n = 14)): 0 n (%)
Best response: Not evaluable (advanced solid tumors; total (n = 14)): 1 (7.1) n (%)
Best response: PD (advanced solid tumors; total (n = 14)): 3 (21.4) n (%)
Best response: PR (advanced solid tumors; total (n = 14)): 2 (14.3) n (%)
Best response: Stable disease (advanced solid tumors; total (n = 14)): 8 (57.1) n (%)
DCR (CR + PR + stable disease) (advanced solid tumors; total (n = 14)): 10 (71.4) n (%)
ORR (advanced solid tumors; total (n = 14), 95% CI 1.8–42.8): 14.3%
ORR (advanced solid tumors; total (n = 14), 95% CI 1.8–42.8, listed as Veliparib): 2 (14.3) [1.8–42.8] %
best objective response (advanced solid tumors; two patients without measurable disease at baseline): non‐CR/non‐PD
half-life [3, 6]: 4.6 ± 1.1 h
AUC(0-inf) [3, 6]: 13600 ± 6240 ng·h/mL
Cmax [3, 6]: 2060 ± 1390 ng/mL
AUC(0-t) [3, 6]: 8890 ± 3770 ng·h/mL
half-life [3, 7]: 4.6 ± 1.3 h
AUC(0-inf) [3, 7]: 29500 ± 9820 ng·h/mL
Cmax [3, 8]: 3280 ± 1040 ng/mL
AUC(0-t) [3, 8]: 16600 ± 3590 ng·h/mL
increase of C max and AUC with dose ([3]; single‐dose oral 200 mg and 400 mg): dose‐proportional
clinical benefit rate (called DCR) (BRCA‐mutated tumors): 68%
objective response rate (ORR) (BRCA‐mutated tumors): 40%
DCR ([4]; GOG‐280 study, germline BRCA1 or BRCA2 mutation): 74.0%
patients with objective response ([4]; n = 50, 90% CI: 16–38%): 26%
CR (number of patients) ([4]; n = 50): 2
PR (number of patients) ([4]; n = 50): 11
median progression‐free survival ([4]; phase 2 monotherapy): 8.2 months
objective responses ([4]; platinum‐resistant patients, n = 6/30, 90% CI: 9–36%): 20%
objective responses ([4]; platinum‐sensitive patients, n = 7/20, 90% CI: 18–56%): 35%
